Measurements: PubChem BioAssay (NCI)
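These data come from cells grown in 96-well plates and exposed to compound for 48 hours at five concentrations. Abbreviation: GI50, concentration required for 50% inhibition of growth. TGI is the concentration that stops growth completely.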

Experiments:
Assay in all cases: DTP human tumour cell line panel, 48 h
HS 578T breast = test system: HS 578T breast
MDA-MB-231 breast = test system: MDA-MB-231 breast
SF-539 CNS = test system: SF-539 CNS
OVCAR-5 ovarian = test system: OVCAR-5 ovarian
NCI-H226 lung = test system: NCI-H226 lung
SK-MEL-2 melanoma = test system: SK-MEL-2 melanoma
MALME-3M melanoma = test system: MALME-3M melanoma
A498 renal = test system: A498 renal
HOP-92 NSCLC = test system: HOP-92 NSCLC
ACHN renal = test system: ACHN renal
SW-620 colon = test system: SW-620 colon
HCT-15 colon = test system: HCT-15 colon
SK-MEL-5 melanoma = test system: SK-MEL-5 melanoma
DU-145 prostate = test system: DU-145 prostate
EKVX NSCLC = test system: EKVX NSCLC
BT-549 breast = test system: BT-549 breast
KM12 colon = test system: KM12 colon
HCC-2998 colon = test system: HCC-2998 colon
SR leukemia = test system: SR leukemia
SK-MEL-28 melanoma = test system: SK-MEL-28 melanoma
OVCAR-8 ovarian = test system: OVCAR-8 ovarian
T-47D breast = test system: T-47D breast
IGROV1 ovarian = test system: IGROV1 ovarian
786-0 renal = test system: 786-0 renal
OVCAR-3 ovarian = test system: OVCAR-3 ovarian
HL-60(TB) leukemia = test system: HL-60(TB) leukemia
SNB-75 CNS = test system: SNB-75 CNS
UACC-62 melanoma = test system: UACC-62 melanoma
HT29 colon = test system: HT29 colon
PC-3 prostate = test system: PC-3 prostate
COLO 205 colon = test system: COLO 205 colon
SF-295 CNS = test system: SF-295 CNS
MDA-MB-435 = test system: MDA-MB-435
SK-OV-3 ovarian = test system: SK-OV-3 ovarian
NCI/ADR-RES ovarian = test system: NCI/ADR-RES ovarian
UACC-257 melanoma = test system: UACC-257 melanoma
TK-10 renal = test system: TK-10 renal
A549 NSCLC = test system: A549 NSCLC
UO-31 renal = test system: UO-31 renal
CAKI-1 renal = test system: CAKI-1 renal
NCI-H23 lung = test system: NCI-H23 lung
RXF 393 renal = test system: RXF 393 renal
U251 CNS = test system: U251 CNS
SN12C renal = test system: SN12C renal
OVCAR-4 ovarian = test system: OVCAR-4 ovarian
MOLT-4 leukemia = test system: MOLT-4 leukemia
LOX IMVI melanoma = test system: LOX IMVI melanoma
K-562 leukemia = test system: K-562 leukemia
HOP-62 NSCLC = test system: HOP-62 NSCLC
NCI-H522 lung = test system: NCI-H522 lung
NCI-H460 lung = test system: NCI-H460 lung
M14 melanoma = test system: M14 melanoma
HCT-116 colon = test system: HCT-116 colon
SF-268 CNS = test system: SF-268 CNS
MCF7 breast = test system: MCF7 breast
SNB-19 CNS = test system: SNB-19 CNS

CCCCCCCCCCCCCCCC1=NCCN1
GI50 (HS 578T breast): 2.22 µM
TGI (HS 578T breast): 6 µM
GI50 (MDA-MB-231 breast): 2.23 µM
TGI (MDA-MB-231 breast): 4.68 µM
GI50 (SF-539 CNS): 1.89 µM
TGI (SF-539 CNS): 3.6 µM
GI50 (OVCAR-5 ovarian): 2.26 µM
TGI (OVCAR-5 ovarian): 5.53 µM
GI50 (NCI-H226 lung): 2.12 µM
TGI (NCI-H226 lung): 4.7 µM
GI50 (SK-MEL-2 melanoma): 2.36 µM
TGI (SK-MEL-2 melanoma): 4.87 µM
GI50 (MALME-3M melanoma): 2.38 µM
TGI (MALME-3M melanoma): 6.46 µM
GI50 (A498 renal): 2.14 µM
TGI (A498 renal): 6.14 µM
GI50 (HOP-92 NSCLC): 2.15 µM
TGI (HOP-92 NSCLC): 4.8 µM
GI50 (ACHN renal): 1.85 µM
TGI (ACHN renal): 3.7 µM
GI50 (SW-620 colon): 1.9 µM
TGI (SW-620 colon): 3.77 µM
GI50 (HCT-15 colon): 1.61 µM
TGI (HCT-15 colon): 3.24 µM
GI50 (SK-MEL-5 melanoma): 1.81 µM
TGI (SK-MEL-5 melanoma): 3.24 µM
GI50 (DU-145 prostate): 1.9 µM
TGI (DU-145 prostate): 3.57 µM
GI50 (EKVX NSCLC): 1.86 µM
TGI (EKVX NSCLC): 4.39 µM
GI50 (BT-549 breast): 6.39 µM
TGI (BT-549 breast): 29.7 µM
GI50 (KM12 colon): 1.83 µM
TGI (KM12 colon): 3.45 µM
GI50 (HCC-2998 colon): 1.85 µM
TGI (HCC-2998 colon): 3.42 µM
GI50 (SR leukemia): 1.84 µM
TGI (SR leukemia): 4.31 µM
GI50 (SK-MEL-28 melanoma): 1.88 µM
TGI (SK-MEL-28 melanoma): 3.77 µM
GI50 (OVCAR-8 ovarian): 2.67 µM
TGI (OVCAR-8 ovarian): 6.92 µM
GI50 (T-47D breast): 2.14 µM
TGI (T-47D breast): 5.65 µM
GI50 (IGROV1 ovarian): 1.96 µM
TGI (IGROV1 ovarian): 4.51 µM
GI50 (786-0 renal): 1.84 µM
TGI (786-0 renal): 3.32 µM
GI50 (OVCAR-3 ovarian): 2.01 µM
TGI (OVCAR-3 ovarian): 4.02 µM
GI50 (HL-60(TB) leukemia): 1.73 µM
TGI (HL-60(TB) leukemia): 3.89 µM
GI50 (SNB-75 CNS): 1.58 µM
TGI (SNB-75 CNS): 3.44 µM
GI50 (UACC-62 melanoma): 2.3 µM
TGI (UACC-62 melanoma): 4.94 µM
GI50 (HT29 colon): 1.87 µM
TGI (HT29 colon): 4.45 µM
GI50 (PC-3 prostate): 2.03 µM
TGI (PC-3 prostate): 4.24 µM
GI50 (COLO 205 colon): 1.86 µM
TGI (COLO 205 colon): 3.66 µM
GI50 (SF-295 CNS): 1.97 µM
TGI (SF-295 CNS): 3.95 µM
GI50 (MDA-MB-435): 1.7 µM
TGI (MDA-MB-435): 3.26 µM
GI50 (SK-OV-3 ovarian): 2.23 µM
TGI (SK-OV-3 ovarian): 4.85 µM
GI50 (NCI/ADR-RES ovarian): 2.16 µM
TGI (NCI/ADR-RES ovarian): 5.09 µM
GI50 (UACC-257 melanoma): 3.25 µM
TGI (UACC-257 melanoma): 9.55 µM
GI50 (TK-10 renal): 1.84 µM
TGI (TK-10 renal): 3.39 µM
GI50 (A549 NSCLC): 2.06 µM
TGI (A549 NSCLC): 4 µM
GI50 (UO-31 renal): 1.65 µM
TGI (UO-31 renal): 3.47 µM
GI50 (CAKI-1 renal): 1.67 µM
TGI (CAKI-1 renal): 3.58 µM
GI50 (NCI-H23 lung): 2.04 µM
TGI (NCI-H23 lung): 4.78 µM
GI50 (RXF 393 renal): 1.75 µM
TGI (RXF 393 renal): 3.38 µM
GI50 (U251 CNS): 1.87 µM
TGI (U251 CNS): 3.52 µM
GI50 (SN12C renal): 2.07 µM
TGI (SN12C renal): 4.29 µM
GI50 (OVCAR-4 ovarian): 2.38 µM
TGI (OVCAR-4 ovarian): 6.89 µM

NCCc1ccc(S(=O)(=O)F)cc1
GI50 (HS 578T breast): 82.8 µM
TGI (HS 578T breast): > 100 µM
GI50 (SF-539 CNS): 14.8 µM
TGI (SF-539 CNS): 70 µM
GI50 (OVCAR-5 ovarian): 43.4 µM
TGI (OVCAR-5 ovarian): > 100 µM
GI50 (MOLT-4 leukemia): 32.2 µM
TGI (MOLT-4 leukemia): > 100 µM
GI50 (SK-MEL-2 melanoma): 90.9 µM
TGI (SK-MEL-2 melanoma): > 100 µM
GI50 (MALME-3M melanoma): 96.5 µM
TGI (MALME-3M melanoma): > 100 µM
GI50 (HOP-92 NSCLC): 32.9 µM
TGI (HOP-92 NSCLC): 96.2 µM
GI50 (ACHN renal): 45.9 µM
TGI (ACHN renal): > 100 µM
GI50 (SW-620 colon): 52.8 µM
TGI (SW-620 colon): > 100 µM
GI50 (HCT-15 colon): 64.4 µM
TGI (HCT-15 colon): > 100 µM
GI50 (SK-MEL-5 melanoma): 59.1 µM
TGI (SK-MEL-5 melanoma): > 100 µM
GI50 (DU-145 prostate): 37 µM
TGI (DU-145 prostate): > 100 µM
GI50 (EKVX NSCLC): 43.3 µM
TGI (EKVX NSCLC): > 100 µM
GI50 (BT-549 breast): 27.9 µM
TGI (BT-549 breast): > 100 µM
GI50 (KM12 colon): > 100 µM
TGI (KM12 colon): > 100 µM
GI50 (HCC-2998 colon): 39.1 µM
TGI (HCC-2998 colon): > 100 µM
GI50 (LOX IMVI melanoma): 51.1 µM
TGI (LOX IMVI melanoma): > 100 µM
GI50 (SK-MEL-28 melanoma): > 100 µM
TGI (SK-MEL-28 melanoma): > 100 µM
GI50 (K-562 leukemia): 80.7 µM
TGI (K-562 leukemia): > 100 µM
GI50 (OVCAR-8 ovarian): > 100 µM
TGI (OVCAR-8 ovarian): > 100 µM
GI50 (T-47D breast): > 100 µM
TGI (T-47D breast): > 100 µM
GI50 (IGROV1 ovarian): 71.7 µM
TGI (IGROV1 ovarian): > 100 µM
GI50 (786-0 renal): 58.2 µM
TGI (786-0 renal): > 100 µM
GI50 (OVCAR-3 ovarian): 31.1 µM
TGI (OVCAR-3 ovarian): 78.1 µM
GI50 (HOP-62 NSCLC): 57.8 µM
TGI (HOP-62 NSCLC): > 100 µM
GI50 (SNB-75 CNS): > 100 µM
TGI (SNB-75 CNS): > 100 µM
GI50 (HT29 colon): > 100 µM
TGI (HT29 colon): > 100 µM
GI50 (NCI-H522 lung): 73.4 µM
TGI (NCI-H522 lung): > 100 µM
GI50 (PC-3 prostate): 42.8 µM
TGI (PC-3 prostate): > 100 µM
GI50 (COLO 205 colon): > 100 µM
TGI (COLO 205 colon): > 100 µM
GI50 (SF-295 CNS): 64.5 µM
TGI (SF-295 CNS): > 100 µM
GI50 (MDA-MB-435): 65.1 µM
TGI (MDA-MB-435): > 100 µM
GI50 (NCI-H460 lung): 62.3 µM
TGI (NCI-H460 lung): > 100 µM
GI50 (SK-OV-3 ovarian): > 100 µM
TGI (SK-OV-3 ovarian): > 100 µM
GI50 (NCI/ADR-RES ovarian): > 100 µM
TGI (NCI/ADR-RES ovarian): > 100 µM
GI50 (M14 melanoma): > 100 µM
TGI (M14 melanoma): > 100 µM
GI50 (UACC-257 melanoma): > 100 µM
TGI (UACC-257 melanoma): > 100 µM
GI50 (TK-10 renal): 59.3 µM
TGI (TK-10 renal): > 100 µM
GI50 (A549 NSCLC): > 100 µM
TGI (A549 NSCLC): > 100 µM
GI50 (UO-31 renal): > 100 µM
TGI (UO-31 renal): > 100 µM
GI50 (CAKI-1 renal): 30.3 µM
TGI (CAKI-1 renal): > 100 µM
GI50 (NCI-H23 lung): > 100 µM
TGI (NCI-H23 lung): > 100 µM
GI50 (HCT-116 colon): 53.7 µM
TGI (HCT-116 colon): > 100 µM
GI50 (RXF 393 renal): 37.8 µM
TGI (RXF 393 renal): 98.2 µM
GI50 (U251 CNS): 95.1 µM
TGI (U251 CNS): > 100 µM
GI50 (SF-268 CNS): > 100 µM
TGI (SF-268 CNS): > 100 µM
GI50 (MCF7 breast): 63.5 µM
TGI (MCF7 breast): > 100 µM
GI50 (OVCAR-4 ovarian): > 100 µM
TGI (OVCAR-4 ovarian): > 100 µM
GI50 (SNB-19 CNS): > 100 µM
TGI (SNB-19 CNS): > 100 µM
